From PubChem BioAssay (NCI) come the findings set out here.

Among the test systems are A498 renal; HCC-2998 colon; K-562 leukemia; MALME-3M melanoma; MDA-MB-435; NCI-H522 lung; NCI/ADR-RES ovarian; SNB-19 CNS; T-47D breast; UO-31 renal.
Holding throughout (assay): growth of human tumour cells (NCI), 48 h

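Cultured in 96-well plates, cells were exposed to test compound for 48 hours across five concentrations. GI50 = concentration required for 50% inhibition of growth. At the TGI there is no net growth.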 A value given as a limit tells only on which side of the number the result lay.

On to `c1cc(OCCN2CCCCCC2)ccc1CNc1ccc2nc(CCC3CCCCC3)[nH]c2c1`, for which the GI50 in the assay with A498 renal was 1.94 µM; in the assay on HCC-2998 colon it was 1.99 µM; in the assay on K-562 leukemia, 1.63 µM; with MALME-3M melanoma, 1.64 µM; in the assay on MDA-MB-435, 1.74 µM; with NCI-H522 lung, 1.97 µM. The GI50 is 2.64 µM in the assay on NCI/ADR-RES ovarian, 3.05 µM in the assay with SNB-19 CNS, 1.72 µM with T-47D breast and 1.37 µM in the assay on UO-31 renal. Further, the TGI with A498 renal was 4.95 µM; with HCC-2998 colon it was 3.98 µM; in the assay on K-562 leukemia, 4.61 µM; in the assay with MALME-3M melanoma, 3.1 µM; with MDA-MB-435, 3.35 µM; with NCI-H522 lung it was 4.34 µM. The TGI amounted to 8.66 µM with NCI/ADR-RES ovarian, 11.4 µM with SNB-19 CNS, 4.79 µM in the assay on T-47D breast and 2.72 µM with UO-31 renal.
With `COc1ccc(-c2cnc3ccnn3c2-c2cc(OC)c(OC)c(OC)c2)cc1`, the GI50 in the assay on A498 renal was 0.293 µM; with HCC-2998 colon, 3.79 µM; in the assay with K-562 leukemia, 0.706 µM; in the assay on MALME-3M melanoma, 5.41 µM; in the assay on MDA-MB-435, 0.282 µM; in the assay with NCI-H522 lung, 0.857 µM. Besides, the GI50 in the assay on NCI/ADR-RES ovarian was 2.89 µM; with SNB-19 CNS it was 5.16 µM; in the assay with T-47D breast, > 100 µM; in the assay on UO-31 renal it was 4.25 µM. The TGI in the assay on A498 renal is 4.47 µM; in the assay with HCC-2998 colon it was > 100 µM; in the assay with K-562 leukemia, > 100 µM; in the assay with MALME-3M melanoma it was > 100 µM; with MDA-MB-435 it was 0.976 µM; with NCI-H522 lung it was > 100 µM. Further, the TGI in the assay with NCI/ADR-RES ovarian, with SNB-19 CNS, in the assay with T-47D breast and in the assay with UO-31 renal was > 100 µM throughout.
On to `O=C1/C(=C\C(Cl)=C/c2ccc([N+](=O)[O-])cc2)SC(=S)N1CCc1ccc(O)cc1`, for which the GI50 in the assay on A498 renal is 1.63 µM; in the assay with HCC-2998 colon it was 0.392 µM; in the assay with K-562 leukemia, 0.285 µM; in the assay on MALME-3M melanoma, 1.05 µM; in the assay on MDA-MB-435 it was 0.552 µM; in the assay on NCI-H522 lung, 0.502 µM. Moreover, the GI50 in the assay with NCI/ADR-RES ovarian was 0.342 µM; in the assay on SNB-19 CNS it was 0.507 µM; in the assay on T-47D breast, 1.64 µM; with UO-31 renal, 0.324 µM. Also, the TGI in the assay with A498 renal is 3.07 µM; with HCC-2998 colon, 1.42 µM; in the assay with K-562 leukemia it was > 100 µM; with MALME-3M melanoma, 2.48 µM; in the assay on MDA-MB-435, 1.95 µM; in the assay with NCI-H522 lung, 2.67 µM. Also, the TGI was found to be 1.78 µM with NCI/ADR-RES ovarian, 1.86 µM with SNB-19 CNS, 4.66 µM in the assay with T-47D breast and 1.24 µM with UO-31 renal.
For `Cn1cccc1-c1cc(-c2cccs2)[nH]c(=O)c1C#N`, the GI50 in the assay with A498 renal was 17.9 µM; in the assay with HCC-2998 colon it was > 100 µM; in the assay with K-562 leukemia, > 100 µM; in the assay with MALME-3M melanoma, > 100 µM; in the assay on MDA-MB-435, > 100 µM; in the assay on NCI-H522 lung, 25.9 µM. Also, the GI50 with NCI/ADR-RES ovarian was > 100 µM; in the assay with SNB-19 CNS, > 100 µM; in the assay on T-47D breast, > 100 µM; in the assay with UO-31 renal, 13.8 µM. The TGI in the assay with A498 renal, with HCC-2998 colon, in the assay with K-562 leukemia, with MALME-3M melanoma, in the assay on MDA-MB-435 and in the assay on NCI-H522 lung was > 100 µM in each case. Moreover, the TGI with NCI/ADR-RES ovarian is > 100 µM; with SNB-19 CNS, > 100 µM; with T-47D breast, > 100 µM; in the assay on UO-31 renal, 27.5 µM.
As to `O=C(Nc1nccs1)c1cc2c(cc1Cl)Sc1nccn1S2(=O)=O`, the GI50 is 19.2 µM in the assay on A498 renal; 15.9 µM in the assay on HCC-2998 colon; 15.9 µM with K-562 leukemia; 20 µM in the assay on MALME-3M melanoma; 1.23 µM in the assay on NCI-H522 lung; 18.9 µM in the assay on NCI/ADR-RES ovarian. Moreover, the values for the GI50 in the assay on SNB-19 CNS, with T-47D breast and in the assay with UO-31 renal were 18.9 µM, 23.4 µM and 4.41 µM, respectively. In addition, the TGI with A498 renal is 34.8 µM; in the assay on HCC-2998 colon, 29.4 µM; with K-562 leukemia, 37.1 µM; with MALME-3M melanoma, 37.2 µM; in the assay on MDA-MB-435, 31.3 µM; in the assay on NCI-H522 lung, 2.85 µM. In addition, the TGI in the assay with NCI/ADR-RES ovarian came to 44.7 µM; in the assay with SNB-19 CNS, 37 µM; with T-47D breast, 64.5 µM; with UO-31 renal it was 14.7 µM.
For `CN(C)CCCN(c1nc(C(Cl)(Cl)Cl)ns1)c1nc(C(Cl)(Cl)Cl)ns1`, the GI50 in the assay on A498 renal is 1.92 µM; with HCC-2998 colon it was 1.69 µM; in the assay with K-562 leukemia, 1.79 µM; with MALME-3M melanoma it was 2.18 µM; in the assay on MDA-MB-435, 2.05 µM; in the assay with NCI-H522 lung, 1.71 µM. For the same molecule, the GI50 with NCI/ADR-RES ovarian was 1.89 µM; in the assay with SNB-19 CNS, 2.53 µM; with T-47D breast, 2.98 µM; with UO-31 renal, 1.47 µM. For the same molecule, the TGI amounted to 4.89 µM in the assay with A498 renal; 3.31 µM in the assay with HCC-2998 colon; 3.93 µM with K-562 leukemia; 5.01 µM in the assay on MALME-3M melanoma; 4.54 µM with MDA-MB-435; 3.45 µM with NCI-H522 lung. Besides, the TGI was determined as 4.41 µM in the assay with NCI/ADR-RES ovarian, 7.3 µM in the assay with SNB-19 CNS, 10.5 µM in the assay on T-47D breast and 3.08 µM with UO-31 renal.
In the case of `Cn1ncc2c(/N=C/c3cccs3)[nH]c(=S)nc21`, the GI50 was 0.689 µM with A498 renal; 32.9 µM in the assay on HCC-2998 colon; 21.2 µM with K-562 leukemia; 34 µM with MALME-3M melanoma; 29.9 µM with MDA-MB-435; > 68.2 µM in the assay on NCI-H522 lung. Moreover, the GI50 in the assay on NCI/ADR-RES ovarian is > 100 µM; with SNB-19 CNS it was 49.9 µM; in the assay with T-47D breast it was 35.9 µM; with UO-31 renal it was 58.6 µM. Also, the TGI was 27.5 µM in the assay with A498 renal; > 100 µM with HCC-2998 colon; > 100 µM with K-562 leukemia; > 80.7 µM in the assay with MALME-3M melanoma; > 72.2 µM in the assay on MDA-MB-435; > 100 µM with NCI-H522 lung. Moreover, the TGI in the assay on NCI/ADR-RES ovarian, in the assay on SNB-19 CNS, in the assay on T-47D breast and in the assay on UO-31 renal was > 100 µM in each case.
Take `Cc1c2c(nn1C(=O)c1nn(-c3ccc(Cl)cc3)cc1O)-c1ccccc1CC2`: the GI50 in the assay with A498 renal is 0.0181 µM; in the assay on HCC-2998 colon, 0.377 µM; in the assay with K-562 leukemia, 0.0273 µM; with MALME-3M melanoma, 0.328 µM; with MDA-MB-435, 0.0412 µM; in the assay with NCI-H522 lung, 0.0376 µM. The GI50 in the assay on NCI/ADR-RES ovarian was 0.0495 µM; with SNB-19 CNS, 0.0446 µM; in the assay on T-47D breast it was 0.0594 µM; with UO-31 renal, 0.0603 µM. The TGI was 0.0612 µM in the assay with A498 renal; > 100 µM in the assay on HCC-2998 colon; > 100 µM in the assay on K-562 leukemia; > 74 µM with MALME-3M melanoma; > 100 µM in the assay with MDA-MB-435; 0.717 µM with NCI-H522 lung. For the same molecule, the TGI in the assay on NCI/ADR-RES ovarian, in the assay with SNB-19 CNS, in the assay with T-47D breast and with UO-31 renal was > 100 µM each time.
In the case of `COc1ccc(-c2nn(-c3cccc(NC(=O)Nc4ccc(Cl)c(C(F)(F)F)c4)c3)cc2-c2ccncc2)cc1Cl`, the GI50 in the assay on A498 renal was 2.4 µM; with HCC-2998 colon, 5.51 µM; in the assay on MALME-3M melanoma it was 2.27 µM; in the assay on MDA-MB-435, 2.16 µM; in the assay on NCI-H522 lung, 1.85 µM; in the assay on NCI/ADR-RES ovarian, 2.62 µM. For the same molecule, the GI50 in the assay on SNB-19 CNS was 3.77 µM; with T-47D breast, 2.22 µM; with UO-31 renal it was 2.12 µM. The TGI was 8.01 µM in the assay on A498 renal; 27 µM with HCC-2998 colon; 7.58 µM in the assay with MALME-3M melanoma; 5.92 µM with MDA-MB-435; 6.77 µM in the assay on NCI-H522 lung; 9.84 µM with NCI/ADR-RES ovarian. Further, the TGI with SNB-19 CNS is > 100 µM; in the assay with T-47D breast, > 100 µM; with UO-31 renal it was 13.3 µM.
With `CC#CS(=O)(=O)c1ccccc1`, the TGI in the assay on A498 renal came to 29.3 µM; with HCC-2998 colon, 13.9 µM; in the assay on MALME-3M melanoma it was 12.5 µM; in the assay with MDA-MB-435, 22.9 µM; in the assay on NCI-H522 lung it was 3.92 µM; in the assay with NCI/ADR-RES ovarian, 28.8 µM. The TGI with SNB-19 CNS amounted to 27.2 µM; with T-47D breast, 6.22 µM; with UO-31 renal it was 3.58 µM.
On to `COc1cc(/C=C/C(=O)c2ccc(Nc3ncnc4ccccc34)cc2)cc(OC)c1`, for which the GI50 was 5.86 µM with A498 renal; 1.79 µM in the assay with HCC-2998 colon; 23.8 µM with MALME-3M melanoma; 1.8 µM with MDA-MB-435; 6.69 µM in the assay on NCI-H522 lung; 6.52 µM in the assay on NCI/ADR-RES ovarian. The results for the GI50 with SNB-19 CNS, with T-47D breast and in the assay on UO-31 renal were 9.99 µM, 6.2 µM and 10.5 µM, respectively. The TGI is > 100 µM with A498 renal; 3.38 µM with HCC-2998 colon; > 100 µM in the assay on MALME-3M melanoma; 4.14 µM in the assay on MDA-MB-435; 30.1 µM in the assay with NCI-H522 lung; > 100 µM with NCI/ADR-RES ovarian. Besides, the TGI with SNB-19 CNS worked out at 83.2 µM; in the assay on T-47D breast it was 39.4 µM; in the assay on UO-31 renal, 28.6 µM.
